Measured values: publication PMC8992272, “Stabilities of Three Key Biological Trisulfides with Implications for Their Roles in the Release of Hydrogen Sulfide and Bioaccumulation of Sulfane Sulfur” (ACS Omega, 2022)
Read-outs that look alike come from different tables or passages of the source.

Key:
Format in all cases: physicochemical
[1] = Stability in water/D2O buffered at different pH values, tracked by 1H NMR
Text: The ^1H NMR spectra of NAC and the disulfide, trisulfide, and tetrasulfide of NAC had peaks at unique values for chemical shifts and allowed for their easy characterization (Figure 3). Pure chemicals of each sulfide were synthesized and characterized by ^1H and ^13C NMR spectroscopy as well as by high-resolution mass spectroscopy. The unique chemical shifts of the peaks for the Ha and Hb/Hc protons on the sulfides allowed the integration of each sulfide to be determined.
The stability of NAC trisulfide in water buffered at pH values of 5.8, 7.4, and 9.0 was measured.
The stability of cysteine trisulfide was investigated in buffered water at pH values of 5.8, 7.0, and 9.0. […] At pH values of 5.8, 7.0, and 9.0, the cysteine trisulfide was soluble and its ^1H NMR spectra were obtained.
The stability of glutathione trisulfide was investigated at pH values of 5.8, 7.4, and 9.0 (Figure S14a). The degradation of glutathione trisulfide was more rapid at pH values of 5.8 and 7.4 than that of the trisulfides of NAC and cysteine. At an acidic pH of 5.8, 71% of glutathione trisulfide degraded after 10 days. At pH values of 7.4 and 9.0, glutathione trisulfide degraded 79 and 81%, respectively, at day 9. […] The degradation of glutathione trisulfide reached an equilibrium of approximately 20% with the disulfide due to the reaction catalyzed by amine with elemental sulfur. Rate constants and half-lives were obtained for the degradation of glutathione trisulfide at each pH value using early data points unaffected by the equilibrium. At pH values of 5.8, 7.4, and 9.0, the estimated half-lives were 6.3 days (151 h), 0.90 days (21.6 h), and 0.79 days (19.0 h), respectively (Figure S14b).
The stability of NAC tetrasulfide was investigated in D2O buffered at pH values of 5.8, 7.4, and 9.0 (Figure S16a). At a pH of 5.8, NAC tetrasulfide degraded by 13% after 9 days. At pH values of 7.4 and 9.0, the tetrasulfide degraded by 55 and 52%, respectively, after 9 days. At each pH, the degradation product was NAC trisulfide, elemental sulfur, and a small amount of NAC disulfide (<3%). […] Estimated rate constants and half-lives for the degradation of NAC tetrasulfide at each pH were obtained. At pH values of 5.8, 7.4, and 9.0, the estimated half-lives were 53.3, 7.5, and 8.2 days, respectively (Figure S16b).

[2] = Stability in D2O in the presence of butylamine or triethylamine, tracked by 1H NMR
Procedure: N-Acetylcysteine trisulfide (26.5 mg, 66 μmol) was dissolved in 600 μL of D2O. Butylamine (5.0 mg, 68 μmol) was added, and the ^1H NMR spectra were taken periodically to track degradation.
N-Acetylcysteine trisulfide (26.5 mg, 66 μmol) was dissolved in 600 μL of D2O. Triethylamine (8.0 mg, 79 μmol) was added, and the ^1H NMR spectra were taken periodically to track degradation.
Cysteine trisulfide (5.5 mg, 20 μmol) was added to 600 μL of D2O. The solution was filtered to remove undissolved particles. […] The ^1H NMR spectra were taken periodically to track degradation.
Cysteine trisulfide (4.3 mg, 16 μmol) was added to 600 μL of D2O. The solution was filtered to remove undissolved particles. […] The ^1H NMR spectra were taken periodically to track degradation.
N-Acetylcysteine tetrasulfide (17.2 mg, 44 μmol) was dissolved in 600 μL of D2O. Butylamine (9.9 mg, 135 μmol) was added, and the ^1H NMR spectra were taken periodically to track degradation.
N-Acetylcysteine tetrasulfide (17.2 mg, 44 μmol) was dissolved in 600 μL of D2O. Triethylamine (13.5 mg, 135 μmol) was added, and the ^1H NMR spectra were taken periodically to track degradation.

[3] = Stability in the presence of acetonitrile, benzamide, zinc sulfate or iron sulfate, or in methanol-d4 (1H NMR)
Procedure: N-Acetylcysteine trisulfide (26.5 mg, 66 μmol) was dissolved in 600 μL of D2O. Acetonitrile (3.0 mg, 73 μmol) was added, and the ^1H NMR spectra were taken periodically to track degradation.
N-Acetylcysteine trisulfide (31.4 mg, 78 μmol) was dissolved in 600 μL of D2O. Benzamide (9.4 mg, 78 μmol) was added, and the ^1H NMR spectra were taken periodically to track degradation.
N-Acetylcysteine trisulfide (15.0 mg, 38 μmol) was dissolved in 600 μL of D2O. ZnSO4 (11.8 mg, 73 μmol) was added, and the ^1H NMR spectra were taken periodically to track degradation.
N-Acetylcysteine trisulfide (15.0 mg, 38 μmol) was dissolved in 600 μL of D2O. FeSO4·7H2O (11.6 mg, 41 μmol) was added, and the ^1H NMR spectra were taken periodically to track degradation.
N-Acetylcysteine trisulfide (32.1 mg, 80 μmol) was dissolved in 600 μL of CD3OD. The ^1H NMR spectra were taken periodically to track degradation.
Cysteine trisulfide (5.1 mg, 19 μmol) was added to 600 μL of D2O. Solution was filtered to remove undissolved particles. […] The ^1H NMR spectra were taken periodically to track degradation.
Cysteine trisulfide (6.8 mg, 25 μmol) was added to 600 μL of D2O. Solution was filtered to remove undissolved particles. […] The ^1H NMR spectra were taken periodically to track degradation.

[4] = Degradation in the presence of butylamine under biologically relevant conditions (37 °C, pH 7.4); settings: pH 7.4 D2O; for degraded: 10 mM
Procedure: To investigate how amines degrade polysulfides in the body, NAC trisulfide was dissolved in pH 7.4 in D2O at a concentration of 10 mM. […] Butylamine was added and the reaction was maintained at body temperature (37 °C). Degradation was tracked using ^1H NMR spectroscopy (Figure 8).
N-Acetylcysteine trisulfide (14.4 mg, 36 μmol) was dissolved in 3.6 mL of D2O buffered to pH 7.4. Butylamine (11 μL, 110 μmol) was added and the contents were heated to 37 °C. The ^1H NMR spectra were taken periodically to track degradation.

[5] = Solubility observations; settings: CDCl3 and acetone

stability ([1]; all pH values tested (abstract)): stable | degradation ([1]; water buffered at pH 5.8, 7.4 and 9.0, after 8 days): no observable degradation | degraded ([2]; 1 equiv butylamine, D2O, after 1 h): 43% | degraded ([2]; 1 equiv butylamine, D2O, after 24 h): 92% | degraded ([2]; 1 equiv triethylamine, D2O, after 1 h): 14% | degraded ([2]; 1 equiv triethylamine, D2O, after 24 h): 87% | half-life ([2]; D2O with butylamine, in the presence of butylamine (abstract), read-out: half-life): 53 min | half-life ([2]; D2O with butylamine, in the presence of butylamine, D2O, early data points, read-out: estimated half-life of degradation (converted)): 56.4 min | half-life ([2]; D2O with triethylamine, in the presence of triethylamine, D2O, early data points, read-out: estimated half-life of degradation (converted)): 132 min | time to reach equilibrium ([2]; addition of butylamine or triethylamine): less than 5 h | tetrasulfide observed as product ([2]; both reactions (butylamine, triethylamine), D2O): < 3% | degradation ([3]; acetonitrile and benzamide added, D2O, after 8 days): No degradation | degradation ([3]; methanol-d4, after 8 days): no observable degradation | stability ([3]; zinc sulfate and iron sulfate in D2O, 11 days): stable | degraded ([4]; after 1 h): 45% | degraded ([4]; after 2 h): 81% | degraded ([4]; after 1 day): 81% | half-life at 10 mM ([4]; D2O buffered to pH 7.4 with butylamine, early data points, read-out: estimated half-life (converted)): 46.2 min | solubility [5]: very limited solubility
SMILES: CC(=O)N[C@@H](CSSSC[C@H](NC(C)=O)C(=O)O)C(=O)O [NAC trisulfide, N-Acetylcysteine Trisulfide]
